Results published in the supplement of paper PMC4932681.
Structures can show the parent of a compound that is named as a salt.

Columns and labels:
Test in all cases: viability inhibition at highest dose (% inhibition); higher = more growth inhibition
T-47D = conditions: 72 h
Method: (§1)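 Percent inhibition of viability (CellTiter-Glo, 72 h) at the highest tested concentration (D5), normalised to DMSO (0%) and 100 µM benzethonium chloride (100%). Resistant lines and the 'in 1µM tamoxifen' arms were tested in 1 µM 4-OH-tamoxifen.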

MCF-7 = conditions: 72 h
Method: as §1

T-47D Tam1 = conditions: 4-OH-tamoxifen in medium 1 µM; 72 h
Method: as §1

ZR-75-1 Tam1 = conditions: 4-OH-tamoxifen in medium 1 µM; 72 h
Method: as §1

MCF-7 Tam1 = conditions: 4-OH-tamoxifen in medium 1 µM; 72 h
Method: as §1

BT-474 Tam1 = conditions: 4-OH-tamoxifen in medium 1 µM; 72 h
Method: as §1

T-47D Tam2 = conditions: 4-OH-tamoxifen in medium 1 µM; 72 h
Method: as §1

ZR-75-1 Tam2 = conditions: 4-OH-tamoxifen in medium 1 µM; 72 h
Method: as §1

BT-474 = conditions: 72 h
Method: as §1

ZR-75-1 = conditions: 72 h
Method: as §1

BT-474 Tam2 = conditions: 4-OH-tamoxifen in medium 1 µM; 72 h
Method: as §1

Row | SMILES | viability inhibition at highest dose (T-47D; 4-OH-tamoxifen in medium 0 µM) | viability inhibition at highest dose (T-47D; 4-OH-tamoxifen in medium 1 µM) | viability inhibition at highest dose (MCF-7; 4-OH-tamoxifen in medium 0 µM) | viability inhibition at highest dose (MCF-7; 4-OH-tamoxifen in medium 1 µM) | viability inhibition at highest dose (T-47D Tam1) | viability inhibition at highest dose (ZR-75-1 Tam1) | viability inhibition at highest dose (MCF-7 Tam1) | viability inhibition at highest dose (BT-474 Tam1) | viability inhibition at highest dose (T-47D Tam2) | viability inhibition at highest dose (ZR-75-1 Tam2) | viability inhibition at highest dose (BT-474; 4-OH-tamoxifen in medium 0 µM) | viability inhibition at highest dose (BT-474; 4-OH-tamoxifen in medium 1 µM) | viability inhibition at highest dose (ZR-75-1; 4-OH-tamoxifen in medium 0 µM) | viability inhibition at highest dose (ZR-75-1; 4-OH-tamoxifen in medium 1 µM) | viability inhibition at highest dose (BT-474 Tam2)
1 | Oc1ncnc2[nH]ncc12 [Allopurinol] (drug 10000 nM) | 0.987 | 3.06 | -21.9 | -2.88 | 5 | 8.36 | 3.95 | -0.277 | 4.5 | -2.7 | 2.31 | 19.8 | -2.05 | 9.69 | 8.84
2 | CN(C)c1nc(N(C)C)nc(N(C)C)n1 [Altretamine] (drug 10000 nM) | -20.9 | 18.5 | -20.5 | 10.6 | 52.4 | 0.782 | -9.06 | 4.18 | 5.82 | -11.8 | -14.8 | -18.3 | -19.3 | -9.44 | 0.399
3 | CO[C@H]1/C=C\C=C(/C)C(=O)NC2=CC(=O)C(NCCN(C)C)=C(C[C@@H](C)C[C@H](OC)[C@H](O)[C@@H](C)/C=C(\C)[C@@H]1OC(N)=O)C2=O [Alvespimycin (17-DMAG)] (drug 1000 nM) | 49.9 | 37.1 | 65 | 47.8 | 35 | 32.9 | 30.2 | 78.3 | 49.2 | 44.1 | 49 | 76.7 | 32.7 | 47 | 68.2
4 | CN1CC[C@H](c2c(O)cc(O)c3c(=O)cc(-c4ccccc4Cl)oc23)[C@H](O)C1 [Alvocidib (Flavopiridol)] (drug 10000 nM) | 29.3 | -0.409 | 62.9 | 65 | 57.8 | 49.9 | 30.1 | 96.8 | 38.7 | 55.9 | 9.07 | 46.1 | 50.1 | 46.6 | 89.5
5 | NCCCNCCSP(=O)(O)O [Amifostine] (drug 10000 nM) | -8.52 | -1.52 | -14.2 | -5.03 | -2.35 | 1.78 | -11.7 | -0.954 | 7 | -10.8 | -2.99 | 1.56 | -8.06 | -7.66 | -1.33
6 | CCC1(c2ccc(N)cc2)CCC(=O)NC1=O (stereo not given) [Aminoglutethimide] (drug 10000 nM) | -3.76 | 5.9 | -3.88 | 8.64 | 4.05 | 9.59 | 6.51 | 12.8 | 4.12 | 8.94 | -3.67 | 20 | 6.41 | 10.3 | -1.52
7 | NCC(=O)CCC(=O)O [Aminolevulinic acid] (drug 10000 nM) | -13.1 | -10.6 | -30.6 | 7.57 | -0.747 | -7.01 | -9.27 | 4.33 | 5.5 | -5.25 | -15.6 | -12.3 | -15.3 | -7.45 | -2.75
8 | CN(C)CCN1C(=O)c2cccc3cc(N)cc(c23)C1=O [Amonafide] (drug 10000 nM) | 23.6 | -12 | 51.1 | 20.4 | 5.27 | 12.9 | 7.15 | -18.4 | 11.3 | 23.1 | -11.5 | -35.2 | 35.4 | 17.1 | -15.7
9 | O=C1CN2Cc3c(ccc(Cl)c3Cl)N=C2N1 [Anagrelide] (drug 10000 nM) | -25.6 | -12.9 | -21.2 | 2.74 | 8.7 | 0.528 | -9.28 | 2.18 | -2.05 | -5.88 | -9.3 | -22.2 | -12.6 | -4.05 | 3.44
10 | CC(C)(C#N)c1cc(Cn2cncn2)cc(C(C)(C)C#N)c1 [Anastrozole] (drug 10000 nM) | -9.21 | -3.66 | -4.15 | -2.23 | -5.37 | -5.43 | -5.71 | -0.566 | 2.94 | -10.2 | -8.01 | -8.68 | -9.38 | -3.76 | -3.02
11 | CC(C)c1c(C(=O)Nc2ccccc2)c(-c2ccccc2)c(-c2ccc(F)cc2)n1CC[C@@H](O)C[C@@H](O)CC(=O)O [Atorvastatin] (drug 10000 nM) | 35.6 | 36.5 | 23.9 | 19.8 | 29.2 | 44.5 | 13.7 | 12.4 | 18.7 | 39.9 | 13.8 | 7.75 | 48.4 | 36.5 | 28.2
12 | CC(=O)OC[C@H]1O[C@@H]([S-])[C@H](OC(C)=O)[C@@H](OC(C)=O)[C@@H]1OC(C)=O.CCP(CC)CC.[Au+] [Auranofin] (drug 2500 nM) | 31 | 36 | 91.7 | 33.9 | 54.3 | 20.7 | 22.4 | 96 | 59.3 | 12.5 | 58 | 97.5 | 15.9 | 25.5 | 66.5
13 | CNC(=O)c1ccccc1Sc1ccc2c(/C=C/c3ccccn3)n[nH]c2c1 [Axitinib] (drug 10000 nM) | 38.7 | 20.7 | 33 | 33.2 | 24.7 | 9.18 | 25 | 41.2 | 27.1 | 22.8 | 22 | 41.5 | 3.79 | 19.2 | 23.2
14 | Nc1ncn([C@@H]2O[C@H](CO)[C@@H](O)[C@H]2O)c(=O)n1 [Azacitidine] (drug 10000 nM) | 16.3 | -5.14 | 31.9 | -0.966 | 23.6 | 11.9 | 1.85 | 1.3 | 21 | 7.49 | 11.1 | 12.4 | 11.2 | 0.709 | 17.2
15 | CC[C@@H]1C(=O)N(C)c2cnc(Nc3ccc(C(=O)NC4CCN(C)CC4)cc3OC)nc2N1C1CCCC1 [BI 2536] (drug 1000 nM) | 29.2 | 19.9 | 39 | 29.9 | 30.3 | 26.8 | 7.18 | 27.9 | 34 | 21.6 | 26 | 48.3 | 12.7 | 26.7 | 11.8
16 | COc1c(C)cnc(Cn2cnc3c(Cl)nc(N)nc32)c1C [BIIB021] (drug 10000 nM) | 65.4 | 51.5 | 56.8 | 45.6 | 46 | 36.3 | 26.1 | 72.2 | 50 | 39.3 | 48.2 | 70.8 | 32.2 | 34.3 | 70.9
17 | O=C(/C=C/c1cccc(S(=O)(=O)Nc2ccccc2)c1)NO [Belinostat  (PXD101)] (drug 10000 nM) | 95.6 | 94.8 | 89.5 | 86.8 | 92 | 39.5 | 22.8 | 89 | 70.4 | 51.5 | 91.3 | 97.1 | 38.9 | 38.7 | 77.2
18 | Cn1c(CCCC(=O)O)nc2cc(N(CCCl)CCCl)ccc21 [Bendamustine (hydrochloride hydrate)] (drug 10000 nM) | -0.126 | -12.1 | 17.8 | -4.09 | 0.785 | -0.263 | -4.92 | -12.7 | -2.82 | 5.86 | -0.115 | -10.7 | -7.06 | -2.1 | -4.38
19 | C=C(c1ccc(C(=O)O)cc1)c1cc2c(cc1C)C(C)(C)CCC2(C)C [Bexarotene] (drug 10000 nM) | 13.7 | 14.2 | -1.91 | 5.85 | 25.9 | -2.13 | 19.2 | -1.85 | 9.65 | 9.24 | 1.74 | 20.9 | 15.4 | 8.83 | 0.869
20 | CC(O)(CS(=O)(=O)c1ccc(F)cc1)C(=O)Nc1ccc(C#N)c(C(F)(F)F)c1 (stereo not given) [Bicalutamide] (drug 10000 nM) | -16.4 | 10.8 | -0.676 | 5.7 | 5.87 | -0.584 | -6.64 | -10.4 | 14.4 | -0.971 | -18.1 | -8.62 | -10.4 | 1.52 | -6.57
21 | CCNC(=O)CCC/C=C\C[C@@H]1[C@@H](/C=C/[C@@H](O)CCc2ccccc2)[C@H](O)C[C@@H]1O [Bimatoprost] (drug 5500 nM) | -18.2 | -17.9 | 10.1 | -1.71 | -9.33 | -5.04 | -5.08 | -14.6 | -4.37 | -15.8 | -10.2 | -22.1 | -13.7 | -4.04 | -16.2
22 | Cc1c(N)nc([C@H](CC(N)=O)NC[C@H](N)C(N)=O)nc1C(=O)N[C@H](C(=O)N[C@H](C)[C@@H](O)[C@H](C)C(=O)N[C@H](C(=O)NCCc1nc(-c2nc(C(=O)NCCC[S+](C)C)cs2)cs1)[C@@H](C)O)[C@@H](OC1OC(CO)C(O)C(O)C1OC1OC(CO)C(O)C(OC(N)=O)C1O)c1cnc[nH]1 (stereo not given in full) [Bleomycin] (drug 10000 nM) | 19.4 | -2.9 | 12.6 | 11.9 | 23.9 | 12.1 | -1.39 | -4.38 | -17.7 | -0.492 | -15.7 | -12 | 22.4 | 9.45 | -5.24
23 | CC(C)C[C@H](NC(=O)[C@H](Cc1ccccc1)NC(=O)c1cnccn1)B(O)O [Bortezomib] (drug 1000 nM) | 94.5 | 93.6 | 74.1 | 92.4 | 97.2 | 71.5 | 73.6 | 98.8 | 96.2 | 64.6 | 62.6 | 97.9 | 71 | 64 | 98.7
24 | COc1cc(Nc2c(C#N)cnc3cc(OCCCN4CCN(C)CC4)c(OC)cc23)c(Cl)cc1Cl [Bosutinib] (drug 10000 nM) | 41.6 | 66.7 | 81.6 | 78.4 | 72 | 22.6 | 50.7 | 96.4 | 77.5 | 57.5 | 83.1 | 95 | 17.9 | 28.8 | 95
25 | Cc1cc2c(F)c(Oc3ncnn4cc(OC[C@@H](C)O)c(C)c34)ccc2[nH]1 [Brivanib] (drug 1000 nM) | -14.5 | -3.49 | -12.6 | -7.3 | 2.73 | -6.33 | -13 | 6.47 | -3.24 | 3.72 | -13 | -17.5 | -7.74 | -7.64 | 7.57
26 | CCC/C=C/C=C/C(=O)O[C@H]1/C(=C/C(=O)OC)C[C@H]2C[C@H]([C@@H](C)O)OC(=O)C[C@H](O)C[C@@H]3C[C@H](OC(C)=O)C(C)(C)[C@](O)(C[C@@H]4C/C(=C/C(=O)OC)C[C@H](/C=C/C(C)(C)[C@]1(O)O2)O4)O3 [Bryostatin 1] (drug 100 nM) | -5.82 | -5.94 | 3.91 | 14.2 | 10.5 | 10.2 | 9.71 | -4.14 | -13.3 | 3.49 | 0.0548 | -6.89 | 12.6 | -3.78 | -0.0992
